One test concerns the target T1, FLK-1 receptor (Mus musculus, UniProt P35918).
T1 construct: expressed in transfected cells; host or cells: NIH3T3 C7#3 cells
Description: FLK-1 ELISA (kinase activity of the FLK-1 receptor in cells engineered to express Flk-1). The test is classed as cell-based. The following applies: NIH3T3 C7#3 cells (FLK-1 expressing), VEGF stimulated. The protocol:
An ELISA assay is conducted to measure the kinase activity of the FLK-1 receptor and more specifically, the inhibition or activation of TK activity on the FLK-1 receptor. Specifically, the following assay can be conducted to measure kinase activity of the FLK-1 receptor in cells genetically engineered to express Flk-1.
Materials. The following reagents and supplies are used: • a. Corning 96-well ELISA plates (Corning Catalog No. 25805-96); • b. Cappel goat anti-rabbit IgG (catalog no. 55641); • c. PBS (Gibco Catalog No. 450-1300EB); • d. TBSW Buffer (50 mM Tris (pH 7.2), 150 mM NaCl and 0.1% Tween-20); • e. Ethanolamine stock (10% ethanolamine (pH 7.0), stored at 4° C.); • f. HNTG buffer (20 mM HEPES buffer (pH 7.5), 150 mM NaCl, 0.2% Triton X-100, and 10% glycerol); • g. EDTA (0.5 M (pH 7.0) as a 100× stock); • h. Sodium orthovanadate (0.5 M as a 100× stock); • i. Sodium pyrophosphate (0.2 M as a 100× stock); • j. NUNC 96 well V bottom polypropylene plates (Applied Scientific Catalog No. AS-72092); • k. NIH3T3 C7#3 Cells (FLK-1 expressing cells); • l. DMEM with 1× high glucose L-Glutamine (catalog No. 11965-050); • m. FBS, Gibco (catalog no. 16000-028); • n. L-glutamine, Gibco (catalog no. 25030-016); • o. VEGF, PeproTech, Inc. (catalog no. 100-20)(kept as 1 μg/100 μL stock in Milli-Q dH2O and stored at −20° C.; • p. Affinity purified anti-FLK-1 antiserum; • q. UB40 monoclonal antibody specific for phosphotyrosine (see, Fendley, et al., 1990, Cancer Research50:1550-1558); • r. EIA grade Goat anti-mouse IgG-POD (BioRad catalog no. 172-1011); • s. 2,2-azino-bis(3-ethylbenz-thiazoline-6-sulfonic acid (ABTS) solution (100 mM citric acid (anhydrous), 250 mM Na2HPO4 (pH 4.0), 0.5 mg/mL ABTS (Sigma catalog no. A-1888)), solution should be stored in dark at 4° C. until ready for use; • t. H2O2 (30% solution) (Fisher catalog no. H325); • u. ABTS/H2O2 (15mL ABTS solution, 2 μL H2O2) prepared 5 minutes before use and left at room temperature; • v. 0.2 M HCl stock in H2O; • w. dimethylsulfoxide (100%)(Sigma Catalog No. D-8418); and • y. Trypsin-EDTA (Gibco BRL Catalog No. 25200-049).
Protocol. The following protocol can be used for conducting the assay:
1. Coat Corning 96-well ELISA plates with 1.0 μg per well Cappel Anti-rabbit IgG antibody in 0.1 M Na2CO3 pH 9.6. Bring final volume to 150 μL per well. Coat plates overnight at 4° C. Plates can be kept up to two weeks when stored at 4° C.
2. Grow cells in Growth media (DMEM, supplemented with 2.0 mM L-Glutamine, 10% FBS) in suitable culture dishes until confluent at 37° C., 5% CO2.
3. Harvest cells by trypsinization and seed in Corning 25850 polystyrene 96-well round bottom cell plates, 25.000 cells/well in 200 μL of growth media.
4. Grow cells at least one day at 37° C., 5% CO2.
5. Wash cells with D-PBS 1×.
6. […]
A general note: An ELISA detects its analyte on a solid surface through an enzyme-linked reagent.

The target in another test is T2, human EGF-R (Homo sapiens, UniProt P00533).
T2 construct: expressed in transfected cells; host or cells: NIH 3T3/C7 cell line
Briefly: EGF Receptor ELISA (EGF receptor kinase activity in cells engineered to express human EGF-R). Format: cell-based. The following applies: NIH 3T3/C7 cell line, EGF stimulated. How it is done: EGF Receptor kinase activity in cells genetically engineered to express human EGF-R can be measured as described below:
Materiala and Reagents. The following materials and reagents are used
a. EGF Ligand: stock concentration=16.5 μM; EGF 201, TOYOBO, Co., Ltd. Japan.
b. 05-101 (UBI) (a monoclonal antibody recognizing an EGFR extracellular domain).
C. Anti-phosphotyosine antibody (anti-Ptyr) (polyclonal).
d. Detection antibody: Goat anti-rabbit lgG horse radish peroxidase conjugate, TAGO, Inc., Burlingame, Calif.
h. Stock reagents of: • EDTA 100 mM pR 7.0 • Na3VO4 0.5 M • Na4(P2O7) 0.2 M
Procedure. The following protocol is used:
1. Coat ELISA plates (Corning, 96 well, Cat. #25805-96) with 05-101 antibody at 0.5 μg per well in PBS, 150 μL final volume/well, and store overnight at 4° C. Coated plates are good for up to 10 days when stored at 4° C.
2. On day of use, remove coating buffer and replace with blocking buffer (5% Carnation Instant NonFat Dry Milk in PBS). Incubate the plate, shaking, at room temperature (about 23° C. to 25° C) for 30 minutes. Just prior to use, remove blocking buffer and wash plate 4 times with TBST buffer.
1. NIH 3T3/C7 cell line (Honegger, et al., Cell 51:199-209, 1987) can be use for this assay.
2. Choose dishes having 80-90% confluence for the experiment. Trypsinize cells and stop reaction by adding 10% CS DMEM medium. Suspend cells in DMEM medium (10% CS DMEM medium) and centrifuge once at 1000 rpm at room temperature for 5 minutes.
3. Resuspend cells in seeding medium (DMEM, 0.5% bovine serum), and count the cells using trypan blue. Viability above 90% is acceptable. Seed cells in DMEM medium (0.5% bovine serum) at a density of 10,000 cells per well, 100 μL per well, in a 96 well microtiter plate. Incubate seeded cells in 5% CO2 at 37° C. for about 40 hours.
1. Check seeded cells for contamination using an inverted microscope. Dilute drug stock (10 mg/mL in DMSO) 1:10 in DMEM medium, then transfer 5 μL to a test well for a final drug dilution of 1:200 and a final DMSO concentration of 1%. Control wells receive DMSO alone. Incubate in 5% CO2 at 37° C. for one hour.
2. Prepare EGF ligand: dilute stock EGF in DMEM so that upon transfer of 10 μL dilute EGF (1:12 dilution), 25 nM final concentration is attained.
3. Prepare fresh 10 mL HNTG* sufficient for 100 μL per well wherein HNTG* comprises: HNTG stock (2.0 mL), milli-Q H2O (7.3 mL), EDTA, 100 mM, pH 7.0 (0.5 mL), Na3VO4 0.5 M (0.1 mL) and Na4(P2O7), 0.2 M (0.1 mL).
5. After two hours incubation with drug, add prepared EGF ligand to cells, 10 μL per well, to yield a final concentration of 25 nM. Control wells receive DMEM alone. Incubate, shaking, at room temperature, for 5 minutes.
6. Remove drug, EGF, and DMEM. Wash cells twice with PBS. Transfer HNTG* to cells, 100 μL per well. Place on ice for 5 minutes. […]

SMILES strings stand for the structures. A value given as a limit tells only on which side of the number the result lay.

T2 sequence (P00533 25-1210): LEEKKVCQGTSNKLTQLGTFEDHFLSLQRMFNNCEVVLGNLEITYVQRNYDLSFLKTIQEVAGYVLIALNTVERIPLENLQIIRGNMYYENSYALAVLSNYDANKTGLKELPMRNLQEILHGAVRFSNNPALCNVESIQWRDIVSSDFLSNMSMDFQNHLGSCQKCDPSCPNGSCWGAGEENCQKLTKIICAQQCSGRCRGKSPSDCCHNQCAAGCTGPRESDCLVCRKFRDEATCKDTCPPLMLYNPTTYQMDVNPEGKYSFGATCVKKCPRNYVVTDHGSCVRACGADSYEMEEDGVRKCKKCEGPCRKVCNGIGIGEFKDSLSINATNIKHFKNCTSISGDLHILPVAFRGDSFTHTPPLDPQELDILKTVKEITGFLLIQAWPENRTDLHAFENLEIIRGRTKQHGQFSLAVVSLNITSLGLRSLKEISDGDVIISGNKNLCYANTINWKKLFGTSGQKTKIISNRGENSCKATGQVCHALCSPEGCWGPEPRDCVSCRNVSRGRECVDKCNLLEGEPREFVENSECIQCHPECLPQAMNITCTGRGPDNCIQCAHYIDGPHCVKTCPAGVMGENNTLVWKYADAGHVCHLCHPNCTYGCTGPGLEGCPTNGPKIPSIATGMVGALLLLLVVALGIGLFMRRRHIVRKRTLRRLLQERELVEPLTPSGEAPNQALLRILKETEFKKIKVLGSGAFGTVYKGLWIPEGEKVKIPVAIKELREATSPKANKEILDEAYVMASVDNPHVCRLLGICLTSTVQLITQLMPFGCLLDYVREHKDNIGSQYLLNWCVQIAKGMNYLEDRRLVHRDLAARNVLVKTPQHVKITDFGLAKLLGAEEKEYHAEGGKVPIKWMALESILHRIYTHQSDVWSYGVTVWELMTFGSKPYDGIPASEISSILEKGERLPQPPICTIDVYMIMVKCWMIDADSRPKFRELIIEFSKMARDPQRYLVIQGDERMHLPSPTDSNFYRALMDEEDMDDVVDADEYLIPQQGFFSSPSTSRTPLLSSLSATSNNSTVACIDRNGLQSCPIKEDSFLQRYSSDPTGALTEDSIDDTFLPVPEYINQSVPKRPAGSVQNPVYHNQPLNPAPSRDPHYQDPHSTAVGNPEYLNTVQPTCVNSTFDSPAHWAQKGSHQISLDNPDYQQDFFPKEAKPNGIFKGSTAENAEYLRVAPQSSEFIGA
T1 sequence (P35918 20-1345): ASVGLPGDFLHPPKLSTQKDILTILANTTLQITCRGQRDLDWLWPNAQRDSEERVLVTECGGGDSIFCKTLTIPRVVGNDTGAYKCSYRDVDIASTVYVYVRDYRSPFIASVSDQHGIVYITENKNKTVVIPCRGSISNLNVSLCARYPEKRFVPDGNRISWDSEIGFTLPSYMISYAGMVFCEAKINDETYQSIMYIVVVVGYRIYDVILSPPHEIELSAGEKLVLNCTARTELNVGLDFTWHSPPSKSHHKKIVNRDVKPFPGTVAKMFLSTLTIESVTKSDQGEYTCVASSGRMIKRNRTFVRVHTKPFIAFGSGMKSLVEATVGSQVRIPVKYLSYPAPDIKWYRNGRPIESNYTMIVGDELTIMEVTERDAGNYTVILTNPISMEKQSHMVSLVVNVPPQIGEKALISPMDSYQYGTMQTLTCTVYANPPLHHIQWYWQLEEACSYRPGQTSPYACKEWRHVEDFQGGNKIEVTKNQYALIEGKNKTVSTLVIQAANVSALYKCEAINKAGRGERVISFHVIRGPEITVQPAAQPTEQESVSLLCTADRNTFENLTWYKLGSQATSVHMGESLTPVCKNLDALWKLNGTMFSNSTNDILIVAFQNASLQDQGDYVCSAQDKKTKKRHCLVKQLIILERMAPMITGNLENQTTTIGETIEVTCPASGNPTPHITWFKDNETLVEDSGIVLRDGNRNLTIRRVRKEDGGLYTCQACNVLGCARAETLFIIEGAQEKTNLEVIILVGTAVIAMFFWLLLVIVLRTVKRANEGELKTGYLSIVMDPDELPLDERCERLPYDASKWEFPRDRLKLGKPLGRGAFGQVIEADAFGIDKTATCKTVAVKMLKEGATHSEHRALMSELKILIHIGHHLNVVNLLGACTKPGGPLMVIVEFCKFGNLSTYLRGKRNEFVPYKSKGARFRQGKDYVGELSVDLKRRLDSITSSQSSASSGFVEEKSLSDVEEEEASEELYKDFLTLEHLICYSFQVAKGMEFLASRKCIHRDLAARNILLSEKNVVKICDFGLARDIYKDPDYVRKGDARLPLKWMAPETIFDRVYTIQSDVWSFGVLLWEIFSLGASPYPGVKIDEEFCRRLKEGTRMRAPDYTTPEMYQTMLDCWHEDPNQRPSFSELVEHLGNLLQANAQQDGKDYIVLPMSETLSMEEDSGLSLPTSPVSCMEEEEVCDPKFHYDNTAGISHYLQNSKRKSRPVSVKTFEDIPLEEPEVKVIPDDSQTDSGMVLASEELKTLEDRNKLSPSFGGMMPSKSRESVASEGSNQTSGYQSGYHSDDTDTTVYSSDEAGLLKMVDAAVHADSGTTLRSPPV

As usually defined, the IC50 is the concentration that inhibits the measured activity by half. Low readings indicate greater potency, high ones weaker potency. Take `Cc1[nH]c(C=C2C(=O)Nc3ncccc32)c(C)c1CCC(=O)O` [3-[2,4-dimethyl-5-(2-oxo-1,2-dihydro-pyrrolo[2,3-b]pyridin-3-ylidenemethyl)-1H-pyrrol-3-yl]-propionic acid]: the IC50 on FLK-1 receptor was 0.15 µM; against human EGF-R, greater than 50 µM.

With `Cc1c(CCC(=O)O)c[nH]c1C=C1C(=O)Nc2ncccc21` [3-[4-methyl-5-(2-oxo-1,2-dihydro-pyrrolo[2,3-b]pyridin-3-ylidenemethyl)-1H-pyrrol-3-yl]-propionic acid], the IC50 at FLK-1 receptor was 0.96 µM; on human EGF-R, greater than 25 µM.

In the case of `O=C1Nc2ncccc2C1=Cc1cnc[nH]1` [3-(3H-imidazol-4-ylmethylene)-1,3-dihydro-pyrrolo[2,3-b]pyridin-2-one], the IC50 against FLK-1 receptor was 17.6 µM; at human EGF-R, greater than 50 µM.

`Cc1cc(C)c(C=C2C(=O)Nc3ncccc32)[nH]1` [3-(3,5-dimethyl-1H-pyrrol-2-ylmethylene)-1,3-dihydro-pyrrolo[2,3-b]pyridin-2-one]: the IC50 on FLK-1 receptor is 2.06 µM; on human EGF-R it was greater than 100 µM.

(Values after patent publication US6849641B1, “Azaindole tyrosine kinase inhibitors” (Sugen, Inc., priority 1997, dated 2005).)
